Experiments:
Assay in all cases: cells
DB = type: functional, cell-based, Homo sapiens; settings: Homo sapiens, DB
Description: SANGER: Inhibition of human DB cell growth in a cell viability assay.

C2BBe1 = type: functional, cell-based, Homo sapiens; settings: Homo sapiens, C2BBe1
Description: SANGER: Inhibition of human C2BBe1 cell growth in a cell viability assay.

DSH1 = type: functional, cell-based, Homo sapiens; settings: Homo sapiens, DSH1
Description: SANGER: Inhibition of human DSH1 cell growth in a cell viability assay.

SW 962 = type: functional, cell-based, Homo sapiens; settings: Homo sapiens, SW 962
Description: SANGER: Inhibition of human SW962 cell growth in a cell viability assay.

IST-SL1 = type: functional, cell-based, Homo sapiens; settings: Homo sapiens, IST-SL1
Description: SANGER: Inhibition of human IST-SL1 cell growth in a cell viability assay.

HH = type: functional, cell-based, Homo sapiens; settings: Homo sapiens, HH
Description: SANGER: Inhibition of human HH cell growth in a cell viability assay.

CCRF-CEM = type: functional, cell-based, Homo sapiens; settings: Homo sapiens, CCRF-CEM
Description: SANGER: Inhibition of human CCRF-CEM cell growth in a cell viability assay.

NCI-H1838 = type: functional, cell-based, Homo sapiens; settings: Homo sapiens, NCI-H1838
Description: SANGER: Inhibition of human NCI-H1838 cell growth in a cell viability assay.

KM12 = type: functional, cell-based, Homo sapiens; settings: Homo sapiens, KM12
Description: SANGER: Inhibition of human KM12 cell growth in a cell viability assay.

OVCAR-4 = type: functional, cell-based, Homo sapiens; settings: Homo sapiens, OVCAR-4
Description: SANGER: Inhibition of human OVCAR-4 cell growth in a cell viability assay.

ES4 = type: functional, cell-based, Homo sapiens; settings: Homo sapiens, ES4
Description: SANGER: Inhibition of human ES4 cell growth in a cell viability assay.

ETK-1 = type: functional, cell-based, Homo sapiens; settings: Homo sapiens, ETK-1
Description: SANGER: Inhibition of human ETK-1 cell growth in a cell viability assay.

TGBC1TKB = type: functional, cell-based, Homo sapiens; settings: Homo sapiens, TGBC1TKB
Description: SANGER: Inhibition of human TGBC1TKB cell growth in a cell viability assay.

HCC2157 = type: functional, cell-based, Homo sapiens; settings: Homo sapiens, HCC2157
Description: SANGER: Inhibition of human HCC2157 cell growth in a cell viability assay.

UACC-257 = type: functional, cell-based, Homo sapiens; settings: Homo sapiens, UACC-257
Description: SANGER: Inhibition of human UACC-257 cell growth in a cell viability assay.

LB771-HNC = type: functional, cell-based, Homo sapiens; settings: Homo sapiens, LB771-HNC
Description: SANGER: Inhibition of human LB771-HNC cell growth in a cell viability assay.

SNU1 = type: functional, cell-based, Homo sapiens; settings: Homo sapiens, SNU1
Description: SANGER: Inhibition of human NCI-SNU-1 cell growth in a cell viability assay.

MS-1 = type: functional, cell-based, Homo sapiens; settings: Homo sapiens, MS-1
Description: SANGER: Inhibition of human MS-1 cell growth in a cell viability assay.

SW872 = type: functional, cell-based, Homo sapiens; settings: Homo sapiens, SW872
Description: SANGER: Inhibition of human SW872 cell growth in a cell viability assay.

NCI-H720 = type: functional, cell-based, Homo sapiens; settings: Homo sapiens, NCI-H720
Description: SANGER: Inhibition of human NCI-H720 cell growth in a cell viability assay.

DMS-114 = type: functional, cell-based, Homo sapiens; settings: Homo sapiens, DMS-114
ES3 = type: functional, cell-based, Homo sapiens; settings: Homo sapiens, ES3
Description: SANGER: Inhibition of human ES3 cell growth in a cell viability assay.

SNB-75 = type: functional, cell-based, Homo sapiens; settings: Homo sapiens, SNB-75
Description: SANGER: Inhibition of human SNB75 cell growth in a cell viability assay.

KG-1 = type: functional, cell-based, Homo sapiens; settings: Homo sapiens, KG-1
Description: SANGER: Inhibition of human KG-1 cell growth in a cell viability assay.

KU812 cell line = type: functional, cell-based, Homo sapiens; settings: Homo sapiens, KU812
Description: SANGER: Inhibition of human KU812 cell growth in a cell viability assay.

NCI-H446 = type: functional, cell-based, Homo sapiens; settings: Homo sapiens, NCI-H446
Description: SANGER: Inhibition of human NCI-H446 cell growth in a cell viability assay.

MV4-11 = type: functional, cell-based, Homo sapiens, MV-4-11; settings: Homo sapiens, MV4-11
Description: SANGER: Inhibition of human MV-4-11 cell growth in a cell viability assay.

EC-GI-10 = type: functional, cell-based, Homo sapiens; settings: Homo sapiens, EC-GI-10
Description: SANGER: Inhibition of human EC-GI-10 cell growth in a cell viability assay.

RXF 393 = type: functional, cell-based, Homo sapiens; settings: Homo sapiens, RXF 393
Description: SANGER: Inhibition of human RXF393 cell growth in a cell viability assay.

K5 = type: functional, cell-based, Homo sapiens; settings: Homo sapiens, K5
Description: SANGER: Inhibition of human K5 cell growth in a cell viability assay.

QIMR-WIL = type: functional, cell-based, Homo sapiens; settings: Homo sapiens, QIMR-WIL
Description: SANGER: Inhibition of human QIMR-WIL cell growth in a cell viability assay.

NCI-H1648 = type: functional, cell-based, Homo sapiens; settings: Homo sapiens, NCI-H1648
Description: SANGER: Inhibition of human NCI-H1648 cell growth in a cell viability assay.

TGBC24TKB = type: functional, cell-based, Homo sapiens; settings: Homo sapiens, TGBC24TKB
Description: SANGER: Inhibition of human TGBC24TKB cell growth in a cell viability assay.

CAS-1 = type: functional, cell-based, Homo sapiens; settings: Homo sapiens, CAS-1
Description: SANGER: Inhibition of human CAS-1 cell growth in a cell viability assay.

EW-24 = type: functional, cell-based, Homo sapiens; settings: Homo sapiens, EW-24
Description: SANGER: Inhibition of human EW-24 cell growth in a cell viability assay.

Calu-6 = type: functional, cell-based, Homo sapiens; settings: Homo sapiens, Calu-6
Description: SANGER: Inhibition of human Calu-6 cell growth in a cell viability assay.

LOX IMVI = type: functional, cell-based, Homo sapiens; settings: Homo sapiens, LOX IMVI
Description: SANGER: Inhibition of human LOXIMVI cell growth in a cell viability assay.

SF-539 = type: functional, cell-based, Homo sapiens; settings: Homo sapiens, SF-539
Description: SANGER: Inhibition of human SF539 cell growth in a cell viability assay.

AM-38 = type: functional, cell-based, Homo sapiens; settings: Homo sapiens, AM-38
Description: SANGER: Inhibition of human AM-38 cell growth in a cell viability assay.

TE-9 = type: functional, cell-based, Homo sapiens; settings: Homo sapiens, TE-9
Description: SANGER: Inhibition of human TE-9 cell growth in a cell viability assay.

LU-134-A = type: functional, cell-based, Homo sapiens; settings: Homo sapiens, LU-134-A
Description: SANGER: Inhibition of human LU-134-A cell growth in a cell viability assay.

TE-10 = type: functional, cell-based, Homo sapiens; settings: Homo sapiens, TE-10
Description: SANGER: Inhibition of human TE-10 cell growth in a cell viability assay.

MC116 = type: functional, cell-based, Homo sapiens; settings: Homo sapiens, MC116
Description: SANGER: Inhibition of human MC116 cell growth in a cell viability assay.

OMC-1 = type: functional, cell-based, Homo sapiens; settings: Homo sapiens, OMC-1
Description: SANGER: Inhibition of human OMC-1 cell growth in a cell viability assay.

SK-LMS-1 = type: functional, cell-based, Homo sapiens; settings: Homo sapiens, SK-LMS-1
Description: SANGER: Inhibition of human SK-LMS-1 cell growth in a cell viability assay.

HT = type: functional, cell-based, Homo sapiens; settings: Homo sapiens, HT
Description: SANGER: Inhibition of human HT cell growth in a cell viability assay.

NCI-H1581 = type: functional, cell-based, Homo sapiens; settings: Homo sapiens, NCI-H1581
Description: SANGER: Inhibition of human NCI-H1581 cell growth in a cell viability assay.

L-428 = type: functional, cell-based, Homo sapiens; settings: Homo sapiens, L-428
Description: SANGER: Inhibition of human L-428 cell growth in a cell viability assay.

NOMO-1 = type: functional, cell-based, Homo sapiens; settings: Homo sapiens, NOMO-1
Description: SANGER: Inhibition of human NOMO-1 cell growth in a cell viability assay.

## O=C(O)c1ccc(-c2c[nH]c3ncc(-c4ccccc4)cc23)cc1C1CCCC1 [GSK-650394]
DB
  IC50: > 16 µM
C2BBe1
  IC50: > 16 µM
DSH1
  IC50: > 16 µM
SW 962
  IC50: > 16 µM
IST-SL1
  IC50: > 16 µM
HH
  IC50: > 16 µM
CCRF-CEM
  IC50: > 16 µM
NCI-H1838
  IC50: > 16 µM
KM12
  IC50: 0.851 µM
OVCAR-4
  IC50: > 16 µM
ES4
  IC50: 4.06 µM
ETK-1
  IC50: 10.1 µM
TGBC1TKB
  IC50: > 16 µM
HCC2157
  IC50: 13.5 µM
UACC-257
  IC50: > 16 µM
LB771-HNC
  IC50: > 16 µM
SNU1
  IC50: > 16 µM
MS-1
  IC50: > 16 µM
SW872
  IC50: 13.7 µM
NCI-H720
  IC50: > 16 µM
DMS-114
  IC50: > 16 µM
ES3
  IC50: > 16 µM
SNB-75
  IC50: > 16 µM
KG-1
  IC50: > 16 µM
KU812 cell line
  IC50: 2.19 µM
NCI-H446
  IC50: > 16 µM
MV4-11
  IC50: 0.165 µM
EC-GI-10
  IC50: > 16 µM
RXF 393
  IC50: > 16 µM
K5
  IC50: > 16 µM
QIMR-WIL
  IC50: 8.8 µM
NCI-H1648
  IC50: > 16 µM
TGBC24TKB
  IC50: > 16 µM
CAS-1
  IC50: 11 µM
EW-24
  IC50: > 16 µM
Calu-6
  IC50: > 16 µM
LOX IMVI
  IC50: > 16 µM
SF-539
  IC50: > 16 µM
AM-38
  IC50: > 16 µM
TE-9
  IC50: > 16 µM
LU-134-A
  IC50: 6.55 µM
TE-10
  IC50: 14.5 µM
MC116
  IC50: > 16 µM
OMC-1
  IC50: > 16 µM
SK-LMS-1
  IC50: 5.38 µM
HT
  IC50: > 16 µM
NCI-H1581
  IC50: > 16 µM
L-428
  IC50: > 16 µM
NOMO-1
  IC50: > 16 µM

## C=C(c1ccc(C(=O)O)cc1)c1cc2c(cc1C)C(C)(C)CCC2(C)C [BEXAROTENE]
DB
  IC50: > 8 µM
C2BBe1
  IC50: > 8 µM
DSH1
  IC50: > 8 µM
SW 962
  IC50: > 8 µM
IST-SL1
  IC50: > 8 µM
HH
  IC50: > 8 µM
CCRF-CEM
  IC50: > 8 µM
NCI-H1838
  IC50: > 8 µM
KM12
  IC50: > 8 µM
OVCAR-4
  IC50: > 8 µM
ES4
  IC50: 3.77 µM
ETK-1
  IC50: > 8 µM
TGBC1TKB
  IC50: > 8 µM
HCC2157
  IC50: > 8 µM
UACC-257
  IC50: > 8 µM
LB771-HNC
  IC50: 2.5 µM
SNU1
  IC50: > 8 µM
MS-1
  IC50: > 8 µM
SW872
  IC50: > 8 µM
NCI-H720
  IC50: > 8 µM
DMS-114
  IC50: > 8 µM
ES3
  IC50: > 8 µM
SNB-75
  IC50: > 8 µM
KG-1
  IC50: > 8 µM
KU812 cell line
  IC50: > 8 µM
NCI-H446
  IC50: > 8 µM
MV4-11
  IC50: 0.453 µM
EC-GI-10
  IC50: > 8 µM
RXF 393
  IC50: > 8 µM
K5
  IC50: > 8 µM
QIMR-WIL
  IC50: > 8 µM
NCI-H1648
  IC50: > 8 µM
TGBC24TKB
  IC50: > 8 µM
CAS-1
  IC50: > 8 µM
EW-24
  IC50: > 8 µM
Calu-6
  IC50: > 8 µM
LOX IMVI
  IC50: > 8 µM
SF-539
  IC50: > 8 µM
AM-38
  IC50: > 8 µM
TE-9
  IC50: > 8 µM
LU-134-A
  IC50: > 8 µM
TE-10
  IC50: > 8 µM
MC116
  IC50: > 8 µM
OMC-1
  IC50: > 8 µM
SK-LMS-1
  IC50: 7.62 µM
HT
  IC50: > 8 µM
NCI-H1581
  IC50: > 8 µM
L-428
  IC50: > 8 µM
NOMO-1
  IC50: > 8 µM

## COc1cccc2c1C(=O)c1c(O)c3c(c(O)c1C2=O)C[C@@](O)(C(=O)CO)C[C@@H]3O[C@H]1C[C@H](N)[C@H](O)[C@H](C)O1 [DOXORUBICIN]
DB
  IC50: 0.162 µM
C2BBe1
  IC50: > 1.02 µM
DSH1
  IC50: 0.373 µM
SW 962
  IC50: 0.0699 µM
IST-SL1
  IC50: 0.517 µM
HH
  IC50: 0.241 µM
CCRF-CEM
  IC50: 0.0245 µM
NCI-H1838
  IC50: 0.405 µM
KM12
  IC50: 0.218 µM
OVCAR-4
  IC50: 0.157 µM
ES4
  IC50: 0.00611 µM
ETK-1
  IC50: 0.083 µM
TGBC1TKB
  IC50: > 1.02 µM
HCC2157
  IC50: 0.064 µM
UACC-257
  IC50: 0.362 µM
LB771-HNC
  IC50: > 1.02 µM
SNU1
  IC50: 0.0659 µM
MS-1
  IC50: 0.253 µM
SW872
  IC50: 0.121 µM
NCI-H720
  IC50: > 1.02 µM
DMS-114
  IC50: 0.396 µM
ES3
  IC50: 0.0895 µM
SNB-75
  IC50: 0.149 µM
KG-1
  IC50: 0.362 µM
KU812 cell line
  IC50: 0.0332 µM
NCI-H446
  IC50: > 1.02 µM
MV4-11
  IC50: 0.01 µM
EC-GI-10
  IC50: > 1.02 µM
RXF 393
  IC50: 0.335 µM
K5
  IC50: 0.0969 µM
QIMR-WIL
  IC50: 0.0207 µM
NCI-H1648
  IC50: 0.132 µM
TGBC24TKB
  IC50: > 1.02 µM
CAS-1
  IC50: 0.238 µM
EW-24
  IC50: 0.97 µM
Calu-6
  IC50: 0.254 µM
LOX IMVI
  IC50: 0.389 µM
SF-539
  IC50: 0.122 µM
AM-38
  IC50: 0.282 µM
TE-9
  IC50: 0.257 µM
LU-134-A
  IC50: 0.0677 µM
TE-10
  IC50: 0.113 µM
MC116
  IC50: 0.391 µM
OMC-1
  IC50: 0.172 µM
SK-LMS-1
  IC50: 0.0532 µM
HT
  IC50: 0.405 µM
NCI-H1581
  IC50: 0.981 µM
L-428
  IC50: 0.791 µM
NOMO-1
  IC50: 0.224 µM

— ChEMBL document CHEMBL1201861, “Genomics of Drug Sensitity in Cancer screening data, Wellcome Trust Sanger Institute”
